Results from ChEMBL document CHEMBL4145540 (Eur J Med Chem, 2018).
The source made the active and inactive calls. No cut-off for these calls is given here.

Key:
HT-29 = experiment: Antiproliferative activity against human HT-29 cells after 2 days by MTT assay; type: functional, cell-based; settings: HT-29, 48 h
MCF7 = experiment: Antiproliferative activity against human MCF7 cells after 2 days by MTT assay; type: functional, cell-based; settings: MCF7, 48 h
HeLa = experiment: Antiproliferative activity against human HeLa cells after 2 days by MTT assay; type: functional, cell-based; settings: 48 h
A549 [1] = experiment: Antiproliferative activity against human A549 cells after 2 days by MTT assay; type: functional, cell-based; settings: A549, 48 h
HL-60 = experiment: Antiproliferative activity against human HL60 cells after 2 days by MTT assay; type: functional, cell-based; settings: HL-60, 48 h
HMEC-1 [2] = experiment: Antiproliferative activity against HMEC1 cells after 2 days by MTT assay; type: functional, cell-based; settings: Homo sapiens, HMEC-1, 48 h
HEK293 = experiment: Antiproliferative activity against HEK293 cells after 2 days by MTT assay; type: cell-based; settings: Homo sapiens, HEK293, 48 h
MDA-MB-231 = experiment: Antiproliferative activity against human MDA-MB-231 cells after 3 days by coulter counting method; type: functional, cell-based; settings: MDA-MB-231, 72 h
A549 [3] = experiment: Cell cycle arrest in human A549 cells assessed as accumulation at sub-G0 phase at 400 nM after 20 hrs by propidium iodide staining based flow cytometry (reference value: 6.6 +/- 0.1%); type: functional
A549 [4] = experiment: Cell cycle arrest in human A549 cells assessed as accumulation at G0/G1 phase at 400 nM after 20 hrs by propidium iodide staining based flow cytometry (reference value: 66 +/- 1%); type: functional
A549 [5] = experiment: Cell cycle arrest in human A549 cells assessed as accumulation at S phase at 400 nM after 20 hrs by propidium iodide staining based flow cytometry (reference value: 16 +/- 1%); type: functional
A549 [6] = experiment: Cell cycle arrest in human A549 cells assessed as accumulation at G2/M phase at 400 nM after 20 hrs by propidium iodide staining based flow cytometry (reference value: 11 +/- 1%); type: functional
Bos taurus = organism: Bos taurus; experiment: Inhibition of calf brain tubulin polymerization after 60 mins by turbidimetric method
A549 [7] = experiment: Disruption of microtubule network in human A549 cells assessed as appearance of tubulin aggregates at 230 nM after 16 hrs by Hoechst staining based immunofluorescence assay; type: cell-based
A549 [8] = experiment: Disruption of microtubule network in human A549 cells assessed as appearance of compressed and fragmented nuclei at 230 nM after 16 hrs by Hoechst staining based immunofluorescence assay; type: cell-based
A549 [9] = experiment: Cell cycle arrest in human A549 cells assessed as accumulation at sub-G0 phase at 60 nM after 20 hrs by propidium iodide staining based flow cytometry (reference value: 6.6 +/- 0.1%); type: functional
A549 [10] = experiment: Cell cycle arrest in human A549 cells assessed as accumulation at G0/G1 phase at 60 nM after 20 hrs by propidium iodide staining based flow cytometry (reference value: 66 +/- 1%); type: functional
A549 [11] = experiment: Cell cycle arrest in human A549 cells assessed as accumulation at S phase at 60 nM after 20 hrs by propidium iodide staining based flow cytometry (reference value: 16 +/- 1%); type: functional
A549 [12] = experiment: Cell cycle arrest in human A549 cells assessed as accumulation at G2/M phase at 60 nM after 20 hrs by propidium iodide staining based flow cytometry (reference value: 11 +/- 1%); type: functional
A549 [13] = experiment: Induction of apoptosis in human A549 cells at 100 nM after 24 hrs by Annexin V-FITC/propidium iodide staining based flow cytometry (reference value: 28%); type: functional
A549 [14] = experiment: Induction of apoptosis in human A549 cells at 10 nM after 24 hrs by Annexin V-FITC/propidium iodide staining based flow cytometry (reference value: 28%); type: functional
HMEC-1 [15] = experiment: Vascular disruptive activity in HMEC1 cells assessed as disruption of preformed tubular networks after 4 hrs by matrigel based assay; type: functional, cell-based; settings: Homo sapiens
A549 [16] = experiment: Induction of apoptosis in human A549 cells after 24 hrs by Annexin V-FITC/propidium iodide staining based flow cytometry; type: functional, cell-based
A549 [17] = experiment: Cell cycle arrest in human A549 cells assessed as accumulation at sub-G0 phase at 160 nM after 20 hrs by propidium iodide staining based flow cytometry (reference value: 6.6 +/- 0.1%); type: functional
A549 [18] = experiment: Cell cycle arrest in human A549 cells assessed as accumulation at G0/G1 phase at 160 nM after 20 hrs by propidium iodide staining based flow cytometry (reference value: 66 +/- 1%); type: functional
A549 [19] = experiment: Cell cycle arrest in human A549 cells assessed as accumulation at S phase at 160 nM after 20 hrs by propidium iodide staining based flow cytometry (reference value: 16 +/- 1%); type: functional
A549 [20] = experiment: Cell cycle arrest in human A549 cells assessed as accumulation at G2/M phase at 160 nM after 20 hrs by propidium iodide staining based flow cytometry (reference value: 11 +/- 1%); type: functional
A549 [21] = experiment: Disruption of microtubule network in human A549 cells assessed as appearance of tubulin aggregates at 150 nM after 16 hrs by Hoechst staining based immunofluorescence assay; type: cell-based
A549 [22] = experiment: Disruption of microtubule network in human A549 cells assessed as appearance of compressed and fragmented nuclei at 150 nM after 16 hrs by Hoechst staining based immunofluorescence assay; type: cell-based
A549 [23] = experiment: Cell cycle arrest in human A549 cells assessed as accumulation at sub-G0 phase at 40 nM after 20 hrs by propidium iodide staining based flow cytometry (reference value: 6.6 +/- 0.1%); type: functional
A549 [24] = experiment: Cell cycle arrest in human A549 cells assessed as accumulation at G0/G1 phase at 40 nM after 20 hrs by propidium iodide staining based flow cytometry (reference value: 66 +/- 1%); type: functional
A549 [25] = experiment: Cell cycle arrest in human A549 cells assessed as accumulation at S phase at 40 nM after 20 hrs by propidium iodide staining based flow cytometry (reference value: 16 +/- 1%); type: functional
A549 [26] = experiment: Cell cycle arrest in human A549 cells assessed as accumulation at G2/M phase at 40 nM after 20 hrs by propidium iodide staining based flow cytometry (reference value: 11 +/- 1%); type: functional

Row | IC50 (HT-29) [nM] | IC50 (MCF7) [nM] | IC50 (HeLa) [nM] | IC50 (A549 [1]) [nM] | IC50 (HL-60) [nM] | IC50 (MDA-MB-231) [nM] | Compound | IC50 (HMEC-1 [2]) [nM] | IC50 (HEK293) [nM] | Activity (A549 [13]) [%] | Activity (A549 [14]) [%] | Activity (A549 [16]) | also measured
1 | 31 | 82 | 24 | 800 | 770 | 9.39 | COc1ccc(/C=C\c2cc(OC)c(OC)c(OC)c2)cc1NC(=O)Oc1ccc(Cl)cc1 | 76 | 142 |  |  |  | Activity (A549 [3]): 20%; Activity (A549 [4]): 21%; Activity (A549 [5]): 18%; Activity (A549 [6]): 41%
2 | 110 | 62 | 17 | 320 | 4 | 71 | COc1ccc(/C=C\c2cc(OC)c(OC)c(OC)c2)cc1NC(=O)Oc1ccccc1F | 180 | 65 |  |  |  | Activity (A549 [17]): 17%; Activity (A549 [18]): 31%; Activity (A549 [19]): 13%; Activity (A549 [20]): 39%
3 | 2.9 | 9.8 | 4.8 | 77 | 4 | 11.8 | COc1ccc(/C=C\c2cc(OC)c(OC)c(OC)c2)cc1NC(=O)Oc1ccccc1 | 12 | 3.3 | 91 | 45 | Dose-dependent effect | Activity (A549 [21]): Active; Activity (A549 [22]): Active; Activity (A549 [23]): 20%; Activity (A549 [24]): 21%; Activity (A549 [25]): 15%; Activity (A549 [26]): 44%

Row | Compound | IC50 (HT-29) [nM] | IC50 (MCF7) [nM] | IC50 (HeLa) [nM] | IC50 (A549 [1]) [nM] | IC50 (HL-60) [nM] | IC50 (MDA-MB-231) [nM] | IC50 (HMEC-1 [2]) [nM] | IC50 (HEK293) [nM] | Activity (A549 [13]) [%] | Activity (A549 [14]) [%] | Activity (A549 [16]) | also measured
4 | COc1ccc(/C=C\c2cc(OC)c(OC)c(OC)c2)cc1N | 22 | 8 | 2.6 | 117 | 4.5 | 12 | 12 | 7.1 | 62 | 56 | Dose-dependent effect | inhibition (Bos taurus): Active; Activity (A549 [7]): Active; Activity (A549 [8]): Active; Activity (A549 [9]): 14%; Activity (A549 [10]): 21%; Activity (A549 [11]): 24%; Activity (A549 [12]): 41%; Activity (HMEC-1 [15]): Dose-dependent effect
